In ChEMBL document CHEMBL1201862, “PubChem BioAssay data set” (2004):
Active and inactive are the calls of the source. Cut-off read from the data, not from the text of the source, for most assays here: actives have a measured EC50 and inactives only a lower limit.

Tests used:
CAAX prenyl protease 2 = CAAX prenyl protease 2 (Saccharomyces cerevisiae S288c, UniProt Q03530); format: biochemical
Trypsin = Trypsin (Sus scrofa, UniProt P00761); test: porcine trypsin inhibitors, dose response, selectivity assay for Rce1 protease inhibitor project, biochemical, quenched peptide fluorescence, cherry-pick (AID 488789)
[1] = target: T1, Tyrosine-protein phosphatase non-receptor type 7 (Homo sapiens, UniProt P35236); test: redox-dependent HePTP inhibition, mechanism study, biochemical, fluorescence (AID 2068); format: functional
T1 sequence (P35236 whole entry): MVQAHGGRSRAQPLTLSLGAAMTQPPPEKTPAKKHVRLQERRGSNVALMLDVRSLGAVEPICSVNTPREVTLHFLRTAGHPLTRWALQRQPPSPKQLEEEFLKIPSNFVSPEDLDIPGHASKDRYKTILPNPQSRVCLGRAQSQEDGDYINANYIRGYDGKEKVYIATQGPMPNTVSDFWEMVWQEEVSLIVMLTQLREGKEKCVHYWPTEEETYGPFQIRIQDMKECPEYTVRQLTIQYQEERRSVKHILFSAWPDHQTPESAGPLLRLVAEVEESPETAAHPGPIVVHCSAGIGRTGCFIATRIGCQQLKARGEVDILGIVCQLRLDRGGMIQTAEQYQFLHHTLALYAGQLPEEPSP

[2] = target: Dual specificity protein phosphatase 3 (Homo sapiens, UniProt P51452); test: SAR VHR1 Fluorescent Assay for In Vitro dose response studies. [Related pubchem assays (depositor defined):AID1654, AID1661, AID1878, AID1992, AID2004, AID2070, AID2085]; format: functional
INS1 = test: beta cell apoptosis inhibitors, cytokine rescue, dose response, luminescence, retest (AID 449756); format: functional, cell-based; conditions: Rattus norvegicus;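 note: cell death triggered by IL-1 beta plus TNF-alpha plus IFN-gamma mixture; protective hits raise ATP signal compared with cytokine alone wells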
[3] = target: T2, Serine/threonine-protein phosphatase (Candida dubliniensis (strain CD36 / CBS 7987 / NCPF 3949 / NRRLY-17841) (Yeast), UniProt B9W6M3); test: calcineurin pathway inhibitors in yeast reporter, dose response, S. cerevisiae, CDRE-lacZ, luminescence, secondary (AID 2388); format: functional, cell-based;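 note: yeast reporter cells carrying a calcineurin-responsive lacZ construct stimulated with calcium chloride; luminescent beta-galactosidase reporter signal in whole cells rather than isolated phosphatase activity; potency for inhibition where a drop in reporter signal means calcineurin blockade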
T2 sequence (B9W6M3 whole entry): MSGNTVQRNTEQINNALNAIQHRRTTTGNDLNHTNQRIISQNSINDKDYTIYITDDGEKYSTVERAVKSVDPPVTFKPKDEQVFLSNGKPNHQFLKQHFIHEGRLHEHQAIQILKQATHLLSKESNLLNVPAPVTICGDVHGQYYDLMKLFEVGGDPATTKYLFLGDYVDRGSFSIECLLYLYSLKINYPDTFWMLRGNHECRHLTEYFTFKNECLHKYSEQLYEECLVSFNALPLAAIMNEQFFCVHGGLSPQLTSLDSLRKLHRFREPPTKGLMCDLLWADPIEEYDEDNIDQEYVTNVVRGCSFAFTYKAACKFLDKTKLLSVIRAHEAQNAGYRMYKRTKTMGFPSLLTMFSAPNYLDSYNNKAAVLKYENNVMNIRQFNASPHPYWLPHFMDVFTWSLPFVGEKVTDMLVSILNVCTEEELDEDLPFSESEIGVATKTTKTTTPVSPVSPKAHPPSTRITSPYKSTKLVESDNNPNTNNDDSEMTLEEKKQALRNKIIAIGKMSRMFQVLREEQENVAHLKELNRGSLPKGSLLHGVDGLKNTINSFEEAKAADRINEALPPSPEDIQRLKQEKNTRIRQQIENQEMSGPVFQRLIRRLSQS

[4] = tested on: Streptococcus sp. 'group A'; test: growth inhibition of control SK(-) GAS strain, dose response, counter-screen for streptokinase expression inhibitor project, luminescence, kanamycin, BacTiterGlo, confirmation (AID 1900); format: functional, organism-based
Streptokinase A = target: T3, Streptokinase A (Streptococcus pyogenes serotype M1, UniProt P10520); test: S. pyogenes streptokinase expression inhibitors, potency, dose response, plasminogen activation absorbance, OD405 (AID 1914); format: functional, Streptococcus pyogenes M1 GAS;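 note: secreted streptokinase activity via plasminogen activation per viability signal from cell pellet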
T3 sequence (P10520 whole entry): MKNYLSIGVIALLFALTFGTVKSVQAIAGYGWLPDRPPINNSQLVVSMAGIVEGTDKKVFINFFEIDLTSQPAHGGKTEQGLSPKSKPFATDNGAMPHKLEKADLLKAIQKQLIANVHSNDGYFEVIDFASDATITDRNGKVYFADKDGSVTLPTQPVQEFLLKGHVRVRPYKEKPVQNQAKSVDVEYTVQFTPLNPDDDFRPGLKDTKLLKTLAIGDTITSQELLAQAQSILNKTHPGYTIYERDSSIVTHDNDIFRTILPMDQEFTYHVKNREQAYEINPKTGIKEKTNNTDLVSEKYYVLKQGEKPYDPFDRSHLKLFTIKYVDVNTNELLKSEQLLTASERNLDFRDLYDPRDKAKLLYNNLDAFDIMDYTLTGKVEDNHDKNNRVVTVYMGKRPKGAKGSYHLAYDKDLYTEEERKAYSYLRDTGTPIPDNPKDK

[5] = target: ATP-dependent molecular chaperone HSP82 (Candida albicans (strain WO-1) (Yeast), UniProt C4YTQ8); test: loss of DOC-induced GRE-beta-galactosidase reporter signal, dose response, Hsp90 inhibitor project, S. cerevisiae, luminescence (AID 2400); format: functional, cell-based;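 note: beta-galactosidase luminescence from glucocorticoid response element reporter as proxy for Hsp90 function; inhibitor potency where signal loss means Hsp90 inhibition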
cells [6] = format: functional, cell-based
[7] = inhibitors of intracellular T. cruzi replication, confirmation, NIH3T3 host cells, beta-gal luminescence (AID 2044); format: functional, cell-based;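 note: intracellular parasites grown in NIH/3T3 mouse fibroblasts as host cells; luminescent beta-galactosidase reporter signal from transgenic T. cruzi replicating inside host cells; inhibitors lower the luminescence signal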
[8] = NIH-3T3 fibroblast cytotoxicity, dose response, cytotoxicity control, cell-based, fluorescence, Alamar Blue, secondary assay (AID 2327); format: functional;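 note: NIH-3T3 mouse fibroblasts cultured with fluconazole at 8 µg/mL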
[9] = target: G-protein coupled receptor 55 (Homo sapiens, UniProt Q9Y2T6); test: GPR55 agonists via beta-arrestin recruitment, primary screen, imaging, U2OS cells, beta-arrestin-GFP redistribution (AID 1961); format: functional
[10] = cytotoxicity toward NIH3T3 fibroblasts, dose response, counter-screen, cell-based, ATP luminescence, mouse fibroblasts (AID 2010); format: functional;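 note: cells exposed to compound for about 90 hours before reading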
cells [11] = format: functional, cell-based; remark: listed apart in the source
Streptococcus = test: Group A Streptococcus viability loss, dose response, counter-screen for streptokinase expression inhibitor project, luminescence, BacTiterGlo (AID 1915); format: functional, organism-based;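 note: potency for reduction of bacterial viability or growth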
[12] = C. albicans growth with fluconazole, confirmation, fluorescence, retest (AID 2467); format: functional, cell-based

Sequence of Trypsin (P00761 whole entry): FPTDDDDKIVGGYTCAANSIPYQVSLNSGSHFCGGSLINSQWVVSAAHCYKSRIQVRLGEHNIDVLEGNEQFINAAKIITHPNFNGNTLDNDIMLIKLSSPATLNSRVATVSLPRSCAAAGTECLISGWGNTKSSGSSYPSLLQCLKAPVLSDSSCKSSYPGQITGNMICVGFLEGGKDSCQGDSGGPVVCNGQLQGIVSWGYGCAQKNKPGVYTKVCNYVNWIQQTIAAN
Sequence of Dual specificity protein phosphatase 3 (P51452 whole entry): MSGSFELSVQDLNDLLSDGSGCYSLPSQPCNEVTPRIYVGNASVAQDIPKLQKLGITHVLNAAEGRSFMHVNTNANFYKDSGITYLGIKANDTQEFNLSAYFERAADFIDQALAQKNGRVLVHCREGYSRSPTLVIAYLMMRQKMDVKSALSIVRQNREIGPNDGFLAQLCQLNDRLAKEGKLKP
Sequence of G-protein coupled receptor 55 (Q9Y2T6 whole entry): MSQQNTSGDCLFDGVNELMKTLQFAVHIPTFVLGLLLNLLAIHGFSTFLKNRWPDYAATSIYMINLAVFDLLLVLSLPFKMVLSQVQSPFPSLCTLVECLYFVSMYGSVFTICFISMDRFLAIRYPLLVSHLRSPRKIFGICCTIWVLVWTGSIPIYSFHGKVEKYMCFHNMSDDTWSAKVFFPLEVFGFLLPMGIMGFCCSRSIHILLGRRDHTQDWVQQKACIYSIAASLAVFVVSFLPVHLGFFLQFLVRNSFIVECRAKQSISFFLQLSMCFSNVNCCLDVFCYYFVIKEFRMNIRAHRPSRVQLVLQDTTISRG
Sequence of CAAX prenyl protease 2 (Q03530 whole entry): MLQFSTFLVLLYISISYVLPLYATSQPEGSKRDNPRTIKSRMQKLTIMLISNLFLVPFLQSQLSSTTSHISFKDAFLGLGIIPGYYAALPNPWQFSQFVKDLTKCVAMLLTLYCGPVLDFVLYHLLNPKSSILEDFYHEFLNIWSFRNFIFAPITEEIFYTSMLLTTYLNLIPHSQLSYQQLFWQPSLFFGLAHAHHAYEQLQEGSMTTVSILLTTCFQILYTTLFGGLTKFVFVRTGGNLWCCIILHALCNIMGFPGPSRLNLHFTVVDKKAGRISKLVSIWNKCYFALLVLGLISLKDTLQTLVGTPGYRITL
Sequence of ATP-dependent molecular chaperone HSP82 (C4YTQ8 whole entry): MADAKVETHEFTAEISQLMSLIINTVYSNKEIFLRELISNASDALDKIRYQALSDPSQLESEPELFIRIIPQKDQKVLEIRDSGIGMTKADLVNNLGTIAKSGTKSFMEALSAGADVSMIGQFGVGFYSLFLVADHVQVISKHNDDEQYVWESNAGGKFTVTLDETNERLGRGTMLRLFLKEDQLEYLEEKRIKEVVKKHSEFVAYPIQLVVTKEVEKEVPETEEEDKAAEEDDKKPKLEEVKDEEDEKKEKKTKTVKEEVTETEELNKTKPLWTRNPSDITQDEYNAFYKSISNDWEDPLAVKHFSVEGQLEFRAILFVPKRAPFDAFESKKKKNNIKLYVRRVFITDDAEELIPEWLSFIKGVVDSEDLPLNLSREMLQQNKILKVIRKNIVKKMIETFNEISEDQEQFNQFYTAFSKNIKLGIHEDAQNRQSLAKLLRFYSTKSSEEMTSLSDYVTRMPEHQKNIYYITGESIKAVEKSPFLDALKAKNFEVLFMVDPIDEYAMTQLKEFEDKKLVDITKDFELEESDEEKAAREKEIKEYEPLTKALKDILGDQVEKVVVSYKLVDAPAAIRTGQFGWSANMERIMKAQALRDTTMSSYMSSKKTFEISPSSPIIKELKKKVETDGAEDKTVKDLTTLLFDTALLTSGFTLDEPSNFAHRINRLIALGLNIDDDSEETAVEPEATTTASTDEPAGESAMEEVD

## C=CCOc1ccc(-c2nnc(S)o2)cc1
CAAX prenyl protease 2
  AC50: 22.6 µM (active)
Trypsin
  AC50: 3.91 µM (active)

## O=C(Nc1ccc2nc(-c3ccco3)c(-c3ccco3)nc2c1)N1CCC(c2ccccc2)C1 (configuration not stated)
[1]
  IC50: 0.55 µM (active)
[2]
  IC50: 14.7 µM (active)

## CC1CCN(Cc2c(C(=O)N/N=C/c3cc(Cl)ccc3O)nnn2-c2nonc2N)CC1
INS1
  AC50: 0.457 µM (active)
[3]
  EC50: > 180 µM (inactive)
[4]
  EC50: 27.3 µM (active)
Streptokinase A
  EC50: 31 µM (active)
[5]
  EC50: > 150 µM (inactive)
Cells [6]
  EC50: > 350 µM (not active)
[7]
  EC50: 0.541 µM (active)
[8]
  EC50: > 150 µM (inconclusive)
[9]
  EC50: 4.16 µM (active)
[10]
  EC50: 5.57 µM (active)
Cells [11]
  EC50: 10.7 µM (active)
Streptococcus
  EC50: > 150 µM (not active)
[12]
  EC50: 0.508 µM (active)
